Row | melting point | SMILES
1 | 215 °C | O=C(NCc1cn(-c2ccc(N3CCOCC3)c(F)c2)nn1)c1cnccn1 [Example 71, Pyrazine-2-carboxylic acid [1-(3-fluoro-4-morpholin-4-yl-phenyl)-1H-[1,2,3]triazol-4-ylmethyl]-amide]
2 | 216 to 218 °C | O=C(NCc1cn(-c2ccc(N3CCSCC3)c(F)c2)nn1)c1cnccn1 [Example 72, N-{1-[3-fluoro-4-(4-thiomorpholinyl)phenyl]-1H-1,2,3-triazol-4-ylmethyl}-pyrazine-2-carboxamide]
3 | 118 °C | CSC(=S)OCc1cn(-c2ccc(N3CCOCC3)c(F)c2)nn1 [Example 73, Dithiocarbonic acid O-[1-(3-fluoro-4-morpholin-4-yl-phenyl)-1H-[1,2,3]triazol-4-ylmethyl]ester S-methyl ester]
4 | 190 to 192 °C | O=C(NCc1cn(-c2ccc(N3CCSCC3)c(F)c2)nn1)c1ccccn1 [Example 75, N-{1-[3-Fluoro-4-(4-thiomorpholinyl)phenyl]-1H-1,2,3-triazol-4-ylmethyl}-pyridine-2-carboxamide]
5 | 192 °C | NC(=S)NCc1cn(-c2ccc(N3CCOCC3)c(F)c2)nn1 [Example 76, [1-(3-Fluoro-4-morpholin-4-yl-phenyl)-1H-[1,2,3]triazol-4-ylmethyl]-thiourea]
6 | 228 to 230 °C | NC(=S)NCc1cn(-c2ccc(N3CC[S+]([O-])CC3)c(F)c2)nn1 [Example 77, {1-[3-Fluoro-4-(1-oxo-1lambda*4*-thiomorpholin-4-yl)-phenyl]-1H-[1,2,3]triazol-4-ylmethyl}-thiourea]
7 | 182 to 184 °C | CNC(=S)NCc1cn(-c2ccc(N3CC[S+]([O-])CC3)c(F)c2)nn1 [Example 78, 1-{1–[3-Fluoro-4-(1-oxo-1lambda*4*-thiomorpholin-4-yl)-phenyl]-1H-[1,2,3]triazol-4-ylmethyl}-3-methyl-thiourea]
8 | 190 °C | O=C(NCc1cn(-c2ccc(N3CCOCC3)c(F)c2)nn1)C(Cl)Cl [Example 79, 2,2-Dichloro-N-[1-(3-fluoro-4-morpholin-4-yl-phenyl)-1H-[1,2,3]triazol-4-ylmethyl]-acetamide]
9 | 174 to 176 °C | CS(=O)(=O)NCc1cn(-c2ccc(N3CC[S+]([O-])CC3)c(F)c2)nn1 [Example 80, N-{1-[3-Fluoro-4-(1-oxo-1lambda*4*-thiomorpholin-4-yl)-phenyl]-1H-[1,2,3]triazol-4-ylmethyl}-methanesulfonamide]
10 | 158 to 160 °C | Fc1cc(-n2cc(CNC(=S)c3ccccn3)nn2)ccc1N1CCSCC1 [Example 81, N-{1-[3-fluoro-4-(−4-thiomorpholinyl)phenyl]-1H-1,2,3-triazol-4-ylmethyl}-pyridine-2-thiocarboxamide]
11 | 145 to 147 °C | COC(=S)NCc1cn(-c2ccc(N3CCC(=O)CC3)c(F)c2)nn1 [Example 82, {1-[3-Fluoro-4-(4-oxo-piperidin-1-yl)-phenyl]-1H-[1,2,3]triazol-4-ylmethyl}-thiocarbamic acid O-methyl ester]
12 | 141 to 142 °C | COC(=S)NCc1cn(-c2ccc(N3CCC(=NO)CC3)c(F)c2)nn1 [Example 83, {1-[3-Fluoro-4-(4-hydroxyimino-piperidin-1-yl)-phenyl]-1H-[1,2,3]triazol-4-ylmethyl}-thiocarbamic acid O-methyl ester]
13 | 198 °C | COC(=S)NCc1cn(-c2ccc(N3CCC(=C(C#N)C#N)CC3)c(F)c2)nn1 [Example 84, {1-[4-(4-Dicyanomethylene-piperidin-1-yl)-3-fluoro-phenyl]-1H-[1,2,3]triazol-4-ylmethyl}-thiocarbamic acid O-methyl ester]
14 | 175 to 176 °C | COC(=S)NCc1cn(-c2cc(F)c(N3CCC(=O)CC3)c(F)c2)nn1 [Example 85, {1-[3,5-Difluoro-4-(4-oxo-piperidin-1-yl)-phenyl]-1H-[1,2,3]triazol-4-ylmethyl}thiocarbamic acid O-methyl ester]

Continued, compound first:

Row | SMILES | melting point
15 | OCc1cn(-c2ccc(N3CCOCC3)c(F)c2)nn1 [Example 2, [1-(3-Fluoro-4-morpholin-4-yl-phenyl)-1H-[1,2,3]triazol-4-yl]-methanol] | 198 °C
16 | [N-]=[N+]=NCc1cn(-c2ccc(N3CCOCC3)c(F)c2)nn1 [Example 12, 4-[4-(4-Azidomethyl-[1,2,3]triazol-1-yl)-2-fluorophenyl]-morpholine] | 90 °C
17 | NCc1cn(-c2cc(F)c(N3CC[S+]([O-])CC3)c(F)c2)nn1 [Example 28, C-{1-[3,5-Difluoro-4-(1-oxo-1lambda*4*-thiomorpholin-4-yl)-phenyl]-1H-[1,2,3]triazol-4-yl}-methylamine] | 190 °C
18 | CC(=O)NCc1cn(-c2cc(F)c(N3CCOCC3)c(F)c2)nn1 [Example 41, N-[1-(3,5-Difluoro-4-morpholin-4-yl-phenyl)-1H-[1,2,3]triazol-4-ylmethyl]-acetamide] | 218 °C
19 | CC(=O)NCc1cn(-c2ccc(N3CCOCC3)c(F)c2)nn1 [Example 42, N-[1-(3-Fluoro-4-morpholin-4-yl-phenyl)-1H-[1,2,3]triazol-4-ylmethyl]-acetamide] | 218 °C
20 | CC(=O)NCc1cn(-c2cc(F)c(N3CCSCC3)c(F)c2)nn1 [Example 43, N-[1-(3,5-Difluoro-4-thiomorpholin-4-yl-phenyl)-1H-[1,2,3]triazol-4-ylmethyl]-acetamide] | 210 °C
21 | CC(=O)NCc1cn(-c2cc(F)c(N3CC[S+]([O-])CC3)c(F)c2)nn1 [Example 44, N-{1-[3,5-Difluoro-4-(1-oxo-1lambda*4*-thiomorpholin-4-yl)-phenyl]-1H-triazol-4-ylmethyl}-acetamide] | 203 °C
22 | CC(=O)NCc1cn(-c2cc(F)c(N3CCS(=O)(=O)CC3)c(F)c2)nn1 [Example 45, N-{1-[4-(1,1-Dioxo-1lambda*6*-thiomorpholin-4-yl)-3,5-difluoro-phenyl]-1H-[1,2,3]triazol-4-ylmethyl}-acetamide] | 197 °C
23 | CC(=O)NCc1cn(-c2ccc(N3CCSCC3)c(F)c2)nn1 [Example 46, N-[1-(3-Fluoro-4-thiomorpholin-4-yl-phenyl)-1H-[1,2,3]triazol-4-ylmethyl]-acetamide] | 207 °C
24 | CC(=O)NCc1cn(-c2ccc(N3CC[S+]([O-])CC3)c(F)c2)nn1 [Example 47, N-{1-[3-Fluoro-4-(1-oxo-1lambda*4*-thiomorpholin-4-yl)-phenyl]-H-[1,2,3]triazol-4-ylmethyl}-acetamide] | 210 °C
25 | COC(=O)NCc1cn(-c2ccc(N3CC[S+]([O-])CC3)c(F)c2)nn1 [Example 48, {1-[3-Fluoro-4-(1-oxo-1lambda*4*-thiomorpholin-4-yl)-phenyl]-1H-[1,2,3]triazol-4-ylmethyl}-carbamic acid methyl ester] | 218 °C
26 | CC(=O)NCc1cn(-c2ccc(N3CCS(=O)(=O)CC3)c(F)c2)nn1 [Example 49, N-{1-[4-(1,1-Dioxo-1lambda*6*-thiomorpholin-4-yl)-3-fluoro-phenyl]H-triazol-4-ylmethyl}-acetamide] | 198 °C
27 | O=CNCc1cn(-c2ccc(N3CC[S+]([O-])CC3)c(F)c2)nn1 [Example 50, N-{1-[3-Fluoro-4-(1-oxo-1lambda*4*-thiomorpholin-4-yl)-phenyl]-1H-[1,2,3]triazol-4-ylmethyl}-formamide] | 182 to 184 °C
28 | CC(=S)NCc1cn(-c2ccc(N3CC[S+]([O-])CC3)c(F)c2)nn1 [Example 53, N-{1-[3-Fluoro-4-(1-oxo-1lambda*4*-thiomorpholin-4-yl)-phenyl]-1H-[1,2,3]triazol-4-ylmethyl}-thioacetamide] | 245 °C
29 | COC(=S)NCc1cn(-c2cc(F)c(N3CC[S+]([O-])CC3)c(F)c2)nn1 [Example 57, 1-[3,5-Difluoro-4-(1-oxo-1lambda*4*-thiomorpholin-4-yl)-phenyl]-1H-{[1,2,3]triazol-4-ylmethyl}-thiocarbamic acid O-methyl ester] | 202 °C
30 | COC(=S)NCc1cn(-c2ccc(N3CCC4(CC3)OCCO4)c(F)c2)nn1 [Example 62, {1-[4-(1,4-Dioxa-8-aza-spiro[4.5]dec-8-yl)-3-fluoro-phenyl]-1H-[1,2,3]triazol-4-ylmethyl}-thiocarbamic acid O-methyl ester] | 135 to 137 °C
31 | COC(=S)NCc1cn(-c2ccc(N3CCS(=N)CC3)c(F)c2)nn1 [Example 63, {1-[3-Fluoro-4-(1-imino-1lambda*4*-thiomorpholin-4-yl)-phenyl]-1H-[1,2,3]triazol-4-ylmethyl}-thiocarbamic acid O-methyl ester] | 198 °C
32 | CNC(=S)NCc1cn(-c2cc(F)c(N3CCOCC3)c(F)c2)nn1 [Example 64, 1-[1-(3,5-Difluoro-4-morpholin-4-yl-phenyl)-1H-[1,2,3]triazol-4-ylmethyl]-3-methyl-thiourea] | 181 °C
33 | CCNC(=S)NCc1cn(-c2ccc(N3CC[S+]([O-])CC3)c(F)c2)nn1 [Example 65, 1-Ethyl-3-{1-[3-fluoro-4-(1-oxo-1lambda*4*-thiomorpholin-4-yl)-phenyl]-1H-[2,3]triazol-4-ylmethyl}-thiourea] | 204 °C
34 | NNC(=S)NCc1cn(-c2ccc(N3CCSCC3)c(F)c2)nn1 [Example 66, 1-[3-fluoro-4-(4-thiomorpholinyl)phenyl]-1H-1,2,3-triazol-4-ylmethylamino-hydrazinomethanethione] | 174 to 176 °C
35 | CSC(=S)NCc1cn(-c2ccc(N3CC[S+]([O-])CC3)c(F)c2)nn1 [Example 68, {1-[3-Fluoro-4-(1-oxo-1lambda*4*-thiomorpholin-4-yl)-phenyl]-1H-[1,2,3]triazol-4-ylmethyl}-dithiocarbamic acid methyl ester] | 184 °C
36 | O=C(NC(=S)NCc1cn(-c2ccc(N3CCOCC3)c(F)c2)nn1)c1ccccc1 [Example 70, 1-Benzoyl-3-[1-(3-fluoro-4-morpholin-4-yl-phenyl)-1H-[1,2,3]triazol-4-ylmethyl]-thiourea] | 138 °C
